Results: ChEMBL document CHEMBL1123720 (J Med Chem, 1987)

Species: Rattus norvegicus
Test: Dose-dependent inhibition of calcium contraction in depolarized rat aortic strips
Format: functional, organism-based
Conditions: Aorta

| SMILES | IC50 [µM] |
| --- | --- |
| CCOC(=O)C1=C(C)N=C(C)/C(=C(/O)OCC)C1c1cccc([N+](=O)[O-])c1SC (configuration not stated) | 0.0058 |
| CCOC(=O)C1=C(C)N=C(C)/C(=C(/O)OCC)C1c1cc([N+](=O)[O-])ccc1SC (configuration not stated) | 0.13 |
| CCOC(=O)[C@H]1[C@H]2/C(=C(\O)OCC)C(C)=N[C@]1(C)Sc1c2cccc1[N+](=O)[O-] | 23 |
| CCOC(=O)[C@H]1[C@H]2/C(=C(\O)OCC)C(C)=N[C@]1(C)Sc1ccc([N+](=O)[O-])cc12 | 3.4 |
| CCOC(=O)[C@H]1[C@H]2/C(=C(\O)OCC)C(C)=N[C@]1(C)Sc1ccccc12 | 22 |
| CCOC(=O)[C@@H]1[C@H]2/C(=C(\O)OCC)C(C)=N[C@]1(C)Sc1cc([N+](=O)[O-])ccc12 | 14 |
| CCOC(=O)[C@@H]1[C@H]2/C(=C(\O)OCC)C(C)=N[C@]1(C)Sc1c2cccc1[N+](=O)[O-] | 3.7 |
| CCOC(=O)[C@@H]1[C@H]2/C(=C(\O)OCC)C(C)=N[C@]1(C)Sc1ccc([N+](=O)[O-])cc12 | 0.031 |
| CCOC(=O)[C@@H]1[C@H]2/C(=C(\O)OCC)C(C)=N[C@]1(C)Sc1ccccc12 | 1.2 |
| COC(=O)C1=C(C)NC(C)=C(C(=O)OC)C1c1ccccc1[N+](=O)[O-] [NIFEDIPINE] | 0.0088 |
| CCOC(=O)C1=C(C)NC(C)=C(C(=O)OC)C1c1cccc([N+](=O)[O-])c1 (configuration not stated) [NITRENDIPINE] | 0.0031 |

Species: Rattus norvegicus
Test: Dose-dependent inhibition of calcium contraction in depolarized rat aortic strips.
Format: functional, organism-based
Conditions: Aorta

| SMILES | IC50 [µM] |
| --- | --- |
| CCOC(=O)[C@H]1[C@H]2/C(=C(\O)OCC)C(C)=N[C@]1(C)Sc1cc([N+](=O)[O-])ccc12 | > 100 |
